Data published in US20240109898A1, “SUBSTITUTED PYRAZOLO[1,5-A]PYRIMIDINE-7-AMINE DERIVATIVES, COMPOSITIONS AND PHARMACEUTICAL USES THEREOF” (SHANGHAI HAIYAN PHARMACEUTICAL TECHNOLOGY CO., LTD., priority 2021, published 2024).

Key:
Format in all cases: biochemical
CDK9/CycT = CDK9/CycT (Homo sapiens (Human), UniProt P50750); test: LANCE Ultra kinase activity inhibition assay, CDK9/CycT; details: ATP 10 μM, highest compound concentration 1 μM
Procedure: (§1) In the following LANCE Ultra test methods, kinase reagents were purchased from Carna Bioscience, reaction substrates and detection reagents were purchased from PerkinElmer, and the remaining reagents were purchased from Thermo scientific.
The inhibiting effects on the kinase activity of CDK1/CycB (Carna bioscience, #04-102), CDK2/CycA (Carna bioscience, #04-103) and CDK9/CycT (Carna bioscience, #04-110) were determined by using LANCE Ultra method.
The kinase activity test was performed using a system (10 μL) containing the following components: substrate diluent prepared by mixing CDK kinase diluent, Ulight-Myelic basic protein (Perkin Elmer, #TRF-0109, hereinafter referred to as U-MBP) and ATP (Thermo scientific, #PV3227); and the compounds (i.e., analyte) prepared in the examples of the present disclosure. The assay for each kinase includes three test groups, i.e., a background group (Blank), a non-inhibition group (PC), and compound testing group (Test). The components included in each test group were as follows:
(§2) Working concentrations of the respective components of the Test groups in different kinase reactions were as follows.
(§3) Compounds: 10 mM of the compound to be tested was dissolved at room temperature and diluted with DMSO to gradient concentrations, followed by diluting with deionized water to prepare a 4× working solution of the compound, and the content of DMSO was 2%. The highest concentration of compound used in the CDK1 and CDK2 assays was 10 μM, and that in CDK9 assay was 1 μM.
1.33×reaction buffer: the components include 26.7 mM of MOPS, 6.67 mM of MgCl2, and 0.0133% Tween-20, which were stored in a 4° C. refrigerator and protected from light after preparation. Freshly prepared DTT was added to a final concentration of 5.33 mM before use.
(§4) The working concentration of DMSO in the reaction was 0.5%.
(§5) The above-mentioned components, after being mixed, were placed on a shaker and incubated at room temperature in the dark for 1 h. 10 μL of test solution was then added to all test groups (including Blank, PC and Test groups).
10 μL of test solution contains the following components: 16 mM of EDTA (Thermo scientific, #15575), 1 nM of phosphorylated U-MBP protein antibody (Perkin Elmer, #TRF-0201), and 1× detection damping fluid (Perkin Elmer, #CR97-100).
After the test solution was added, the solution was placed on a shaker and continually incubated at room temperature for 1 h in the dark. At the end of incubation, Victor X5 fluorescence microplate reader of Perkin Elmer was used to read the signal; the wavelength of excitation light was 320 nm, and the wavelengths of emission light were 615 nm and 665 nm. The inhibition rate was calculated as below.
1. For all groups, a value of 665 nm/615 nm (hereinafter referred to as Ratio) was calculated, and an inhibition rate was calculated based on the Ratio of each group;
(§6) 2. Inhibition rate=(PCRatio-TestRatio)/(PCRatio-BlankRatio)*100%; and
(§7) 3. XLFIT 5.0 software (IDBS, UK) was used to fit a graph by using the logarithmic value of the compound concentration as the X-axis and the inhibition rater as the Y-axis, and a four-parameter model was used to calculate the half inhibitory concentration IC50 of the compound.

CDK2/CycA = CDK2/CycA (Homo sapiens (Human), UniProt P24941); test: LANCE Ultra kinase activity inhibition assay, CDK2/CycA; details: ATP 10 μM, highest compound concentration 10 μM
Source text: as §1
(§8) The assay for each kinase includes three test groups, i.e., a background group (Blank), a non-inhibition group (PC), and compound testing group (Test). The components included in each test group were as follows:
as §2, §3, §4, §5
(§9) After the test solution was added, the solution was placed on a shaker and continually incubated at room temperature for 1 h in the dark. […] The inhibition rate was calculated as below.
as §6, §7

CDK1/CycB = CDK1/CycB (Homo sapiens (Human), UniProt P06493); test: LANCE Ultra kinase activity inhibition assay, CDK1/CycB; details: ATP 4 μM, highest compound concentration 10 μM
Chain of CDK1/CycB (P06493 whole entry): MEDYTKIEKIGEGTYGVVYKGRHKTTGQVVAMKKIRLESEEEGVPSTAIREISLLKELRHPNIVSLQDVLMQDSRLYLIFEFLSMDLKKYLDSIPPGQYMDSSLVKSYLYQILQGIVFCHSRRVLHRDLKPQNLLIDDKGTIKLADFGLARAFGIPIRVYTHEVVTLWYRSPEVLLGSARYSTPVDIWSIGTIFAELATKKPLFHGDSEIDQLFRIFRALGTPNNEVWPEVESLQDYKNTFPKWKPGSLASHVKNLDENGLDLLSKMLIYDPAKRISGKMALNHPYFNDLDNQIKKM
Chain of CDK1/CycB (P14635 whole entry partner): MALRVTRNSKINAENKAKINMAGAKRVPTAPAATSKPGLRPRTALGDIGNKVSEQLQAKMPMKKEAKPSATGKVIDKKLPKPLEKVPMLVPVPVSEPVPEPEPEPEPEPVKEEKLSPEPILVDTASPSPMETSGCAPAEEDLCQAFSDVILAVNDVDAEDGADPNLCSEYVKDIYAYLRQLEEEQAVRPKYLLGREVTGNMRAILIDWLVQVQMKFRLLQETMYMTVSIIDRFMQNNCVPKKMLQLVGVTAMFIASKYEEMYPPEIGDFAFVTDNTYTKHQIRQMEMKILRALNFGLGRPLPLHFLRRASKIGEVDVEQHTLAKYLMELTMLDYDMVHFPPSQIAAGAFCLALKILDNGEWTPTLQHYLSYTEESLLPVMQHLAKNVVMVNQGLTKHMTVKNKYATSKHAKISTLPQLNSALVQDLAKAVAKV
Source text: as §1, §8, §2, §3, §4, §5, §9, §6, §7

Chain of CDK9/CycT (P50750 whole entry): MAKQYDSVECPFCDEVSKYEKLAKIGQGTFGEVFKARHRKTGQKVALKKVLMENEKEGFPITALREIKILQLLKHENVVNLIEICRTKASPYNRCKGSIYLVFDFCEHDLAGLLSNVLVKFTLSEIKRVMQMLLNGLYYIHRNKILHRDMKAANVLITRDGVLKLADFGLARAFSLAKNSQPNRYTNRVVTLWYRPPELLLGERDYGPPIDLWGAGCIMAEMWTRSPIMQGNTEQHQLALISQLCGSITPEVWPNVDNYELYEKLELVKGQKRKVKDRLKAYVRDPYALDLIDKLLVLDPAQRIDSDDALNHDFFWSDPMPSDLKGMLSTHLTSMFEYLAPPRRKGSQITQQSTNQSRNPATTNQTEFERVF
Chain of CDK9/CycT (O60563 whole entry partner): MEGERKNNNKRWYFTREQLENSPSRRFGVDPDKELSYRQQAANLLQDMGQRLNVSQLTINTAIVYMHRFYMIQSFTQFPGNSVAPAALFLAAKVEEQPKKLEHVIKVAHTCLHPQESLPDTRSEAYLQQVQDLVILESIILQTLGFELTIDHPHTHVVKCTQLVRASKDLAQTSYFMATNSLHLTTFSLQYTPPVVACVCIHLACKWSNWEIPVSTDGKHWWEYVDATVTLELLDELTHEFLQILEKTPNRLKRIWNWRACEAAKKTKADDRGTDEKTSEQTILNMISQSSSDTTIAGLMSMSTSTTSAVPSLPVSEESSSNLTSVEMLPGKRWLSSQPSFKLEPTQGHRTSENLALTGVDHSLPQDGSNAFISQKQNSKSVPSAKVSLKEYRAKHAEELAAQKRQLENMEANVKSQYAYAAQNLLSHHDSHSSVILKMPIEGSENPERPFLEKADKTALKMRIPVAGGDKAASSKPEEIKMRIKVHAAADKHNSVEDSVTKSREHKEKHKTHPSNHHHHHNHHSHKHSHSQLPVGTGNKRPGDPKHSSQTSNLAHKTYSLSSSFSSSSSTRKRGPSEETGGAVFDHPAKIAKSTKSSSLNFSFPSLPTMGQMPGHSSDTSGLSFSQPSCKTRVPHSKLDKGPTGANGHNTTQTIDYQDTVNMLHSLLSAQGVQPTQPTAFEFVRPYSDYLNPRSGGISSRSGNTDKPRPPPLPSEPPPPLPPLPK

Row | SMILES | IC50 (CDK9/CycT) | IC50 (CDK2/CycA) | IC50 (CDK1/CycB)
1 | Cc1cnn2c(N[C@H]3CC[C@H](N)C3)cc([C@H](C)C3CCC3)nc12 (single isomer, unassigned) [Compound Z-38-P1] | 0.04 µM | – | –
2 | Cc1cnn2c(N[C@H]3CC[C@H](N)C3)cc([C@H](C)C3CCC3)nc12 (single isomer, unassigned) [Compound Z-38-P2] | 0.016 µM | – | –
3 | N[C@H]1CC[C@H](Nc2cc(C(C3CC3)C3CC3)nc3ccnn23)C1 [Compound Z-1] | 0.018 µM | 5.65 µM | 1.96 µM
4 | N[C@H]1CC[C@H](Nc2cc(C(C3CC3)C3CC3)nc3c(Cl)cnn23)C1 [Compound Z-2] | 0.006 µM | 0.191 µM | 0.161 µM
5 | N[C@H]1CC[C@H](Nc2cc(CC3CC3)nc3ccnn23)C1 [Compound Z-3] | 0.073 µM | > 10 µM | > 10 µM
6 | N#Cc1cnn2c(N[C@H]3CC[C@H](N)C3)cc(C(C3CC3)C3CC3)nc12 [Compound Z-4] | 0.014 µM | 0.828 µM | 0.716 µM
7 | C[C@@H](c1cc(N[C@H]2CC[C@H](N)C2)n2nccc2n1)C1CC1 [Compound Z-5-1] | 0.023 µM | – | –
8 | CC(c1cc(N[C@H]2CC[C@H](N)C2)n2nccc2n1)C1CC1 (stereo partly drawn) [Compound Z-5] | 0.017 µM | – | –
9 | C[C@@H](c1cc(N[C@H]2CC[C@H](N)C2)n2nccc2n1)C1CCC1 [Compound Z-11-P2] | 0.03 µM | – | –
10 | CC(c1cc(N[C@H]2CC[C@H](N)C2)n2nccc2n1)C1CCC1 (stereo partly drawn) [Compound Z-11] | 0.022 µM | – | –
11 | CC(C)(c1cc(N[C@H]2CC[C@H](N)C2)n2nccc2n1)C1CC1 [Compound Z-12] | 0.02 µM | > 10 µM | 2.72 µM
12 | CC(c1cc(N[C@H]2CC[C@H](N)C2)n2nccc2n1)C1CCCC1 (stereo partly drawn) [Compound Z-13] | 0.018 µM | 7.62 µM | 1.34 µM
13 | N[C@H]1CC[C@H](Nc2cc(C(C3CC3)C3CC3)nc3c(C4CC4)cnn23)C1 [Compound Z-14] | 0.042 µM | 2.55 µM | 1.61 µM
14 | N[C@H]1CC[C@H](Nc2cc(C(C3CC3)C3CC3)nc3c(F)cnn23)C1 [Compound Z-15] | 0.005 µM | 0.367 µM | 0.293 µM
15 | CCc1cnn2c(N[C@H]3CC[C@H](N)C3)cc(C(C3CC3)C3CC3)nc12 [Compound Z-16] | 0.022 µM | 1.27 µM | 1.27 µM
16 | CC1(Cc2cc(N[C@H]3CC[C@H](N)C3)n3nccc3n2)CC1 [Compound Z-17] | 0.06 µM | > 10 µM | 8.45 µM
17 | C=CC(C)(C)c1cc(N[C@H]2CC[C@H](N)C2)n2nccc2n1 [Compound Z-18] | 0.033 µM | > 10 µM | 4.2 µM
18 | C=CC(C)(C)c1cc(N[C@H]2CC[C@H](N)C2)n2ncc(C)c2n1 [Compound Z-19] | 0.092 µM | > 10 µM | > 10 µM
19 | CCc1cnn2c(N[C@H]3CC[C@H](N)C3)cc(C(C)C3CC3)nc12 (stereo partly drawn) [Compound Z-20] | 0.034 µM | 4.39 µM | 2.42 µM
20 | CC(c1cc(N[C@H]2CC[C@H](N)CC2)n2nccc2n1)C1CC1 (stereo partly drawn) [Compound Z-21] | 0.029 µM | 3.29 µM | 4.37 µM
21 | CC(c1cc(N[C@H]2CC[C@H](N)C2)n2nccc2n1)(C1CC1)C1CC1 [Compound Z-22] | 0.013 µM | 8.64 µM | 1.77 µM
22 | CC(C)c1cnn2c(N[C@H]3CC[C@H](N)C3)cc(C(C3CC3)C3CC3)nc12 [Compound Z-24] | 0.084 µM | 2.92 µM | 2.53 µM
23 | Cc1cnn2c(N[C@H]3CC[C@H](N)C3)cc(CC3(C)CC3)nc12 [Compound Z-25] | 0.021 µM | 8.71 µM | 9.87 µM

Row | SMILES | IC50 (CDK9/CycT) | IC50 (CDK2/CycA) | IC50 (CDK1/CycB)
24 | Cc1cnn2c(N[C@H]3CC[C@H](N)C3)cc([C@H](C)C3(C)CC3)nc12 [Compound Z-26-P1] | 0.005 µM | 1.8 µM | 1.62 µM
25 | Cc1cnn2c(N[C@H]3CC[C@H](N)C3)cc([C@@H](C)C3(C)CC3)nc12 [Compound Z-26-P2] | 0.078 µM | > 10 µM | > 10 µM
26 | Cc1cnn2c(N[C@H]3CC[C@H](N)C3)cc(C(C)C3(C)CC3)nc12 (stereo partly drawn) [Compound Z-26] | 0.026 µM | 7.06 µM | 3.92 µM
27 | C[C@@H](c1cc(N[C@H]2CC[C@H](N)C2)n2nccc2n1)C1(C)CC1 [Compound Z-27-P1] | 0.047 µM | > 10 µM | 1.21 µM
28 | C[C@H](c1cc(N[C@H]2CC[C@H](N)C2)n2nccc2n1)C1(C)CC1 [Compound Z-27-P2] | 0.008 µM | 2.78 µM | 2.08 µM
29 | CC(c1cc(N[C@H]2CC[C@H](N)C2)n2nccc2n1)C1(C)CC1 (stereo partly drawn) [Compound Z-27] | 0.009 µM | 2.82 µM | 0.772 µM
30 | CC[C@@H](c1cc(N[C@H]2CC[C@H](N)C2)n2nccc2n1)C1CC1 [Compound Z-28-P1] | 0.006 µM | 4.51 µM | 2.05 µM
31 | CC[C@H](c1cc(N[C@H]2CC[C@H](N)C2)n2nccc2n1)C1CC1 [Compound Z-28-P2] | 0.012 µM | > 10 µM | 2.39 µM
32 | CCC(c1cc(N[C@H]2CC[C@H](N)C2)n2nccc2n1)C1CC1 (stereo partly drawn) [Compound Z-28] | 0.011 µM | 3.07 µM | 1.86 µM
33 | CC1(Cc2cc(N[C@H]3CC[C@H](N)C3)n3ncc(Cl)c3n2)CC1 [Compound Z-29] | 0.011 µM | 2.06 µM | 1.89 µM
34 | CC[C@H](c1cc(N[C@H]2CC[C@H](N)C2)n2ncc(C)c2n1)C1CC1 [Compound Z-30-P1] | 0.01 µM | 0.968 µM | 1.12 µM
35 | CC[C@@H](c1cc(N[C@H]2CC[C@H](N)C2)n2ncc(C)c2n1)C1CC1 [Compound Z-30-P2] | 0.022 µM | 4.91 µM | 3.54 µM
36 | CCC(c1cc(N[C@H]2CC[C@H](N)C2)n2ncc(C)c2n1)C1CC1 (stereo partly drawn) [Compound Z-30] | 0.01 µM | 1.55 µM | 1.36 µM
37 | CC(c1cc(NC2CCNC2)n2ncc(F)c2n1)C1CC1 (stereo not drawn) [Compound Z-31] | 0.104 µM | 6.39 µM | 3.21 µM
38 | Cc1cnn2c(N[C@H]3CC[C@H](N)C3)cc([C@H](C)C3CC3)nc12 [Compound Z-32-P1] | 0.099 µM | > 10 µM | > 10 µM
39 | Cc1cnn2c(N[C@H]3CC[C@H](N)C3)cc(C(C)C3CC3)nc12 (stereo partly drawn) [Compound Z-32] | 0.009 µM | 0.967 µM | 0.996 µM
40 | N[C@H]1CC[C@H](Nc2cc(C(C3CC3)C3CC3)nc3c(C(F)(F)F)cnn23)C1 [Compound Z-33] | 0.006 µM | 0.355 µM | 0.347 µM
41 | Cc1cnn2c(N[C@H]3CC[C@H](N)C3)cc(C(C)(C)C3CC3)nc12 [Compound Z-34] | 0.036 µM | > 10 µM | 8.09 µM
42 | CC(C)(c1cc(N[C@H]2CC[C@H](N)C2)n2ncc(Cl)c2n1)C1CC1 [Compound Z-35] | 0.018 µM | 1.56 µM | 1.5 µM
43 | CC(C)(c1cc(N[C@H]2CC[C@H](N)C2)n2ncc(F)c2n1)C1CC1 [Compound Z-36] | 0.006 µM | 2.11 µM | 0.924 µM
44 | N[C@H]1CC[C@H](Nc2cc(C(F)(F)C3CC3)nc3ccnn23)C1 [Compound Z-37] | 0.027 µM | > 10 µM | 7.18 µM
45 | Cc1cnn2c(N[C@H]3CC[C@H](N)C3)cc(C(C)C3CCC3)nc12 (stereo partly drawn) [Compound Z-38] | 0.017 µM | – | –
46 | NN1CCC(Nc2cc(C(C3CC3)C3CC3)nc3ccnn23)C1 (stereo not drawn) [Compound Z-59] | – | > 10 µM | 8.82 µM
